This assay addresses Neuraminidase (Influenza A virus (A/Puerto Rico/8/1934(H1N1)), UniProt P03468).

Chain of Neuraminidase (Influenza A virus (A/Puerto Rico/8/1934(H1N1)), UniProt P03468) (P03468 whole entry): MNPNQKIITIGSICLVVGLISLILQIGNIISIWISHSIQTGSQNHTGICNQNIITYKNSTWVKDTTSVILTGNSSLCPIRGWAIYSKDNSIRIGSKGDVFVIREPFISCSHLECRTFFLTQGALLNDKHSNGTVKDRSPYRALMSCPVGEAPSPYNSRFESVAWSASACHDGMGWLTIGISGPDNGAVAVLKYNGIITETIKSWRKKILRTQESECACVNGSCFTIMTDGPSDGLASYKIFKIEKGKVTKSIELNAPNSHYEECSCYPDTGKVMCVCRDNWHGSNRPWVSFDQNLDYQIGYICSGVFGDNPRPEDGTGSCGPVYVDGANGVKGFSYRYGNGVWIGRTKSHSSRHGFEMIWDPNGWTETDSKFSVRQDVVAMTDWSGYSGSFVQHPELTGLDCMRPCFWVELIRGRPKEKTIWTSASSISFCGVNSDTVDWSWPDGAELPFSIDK
Description: inhibition of Influenza A Sialidase

Turning to `CC(=O)NC1C(N)C=C(C(=O)O)OC1[C@H](O)[C@H](O)CO` (stereo partly specified), the inhibitory constant (Ki) was 40 nM.

Usually Ki stands for the equilibrium dissociation constant of an inhibitor or competing ligand from its target.

Source of the values: ChEMBL document CHEMBL1127812, “Molecular modeling studies on ligand binding to sialidase from influenza virus and the mechanism of catalysis” (J Med Chem, 1994).
